The record followed here is patent US20210343946A1, “INFRARED ABSORBERS, INFRARED ABSORBING/BLOCKING FILMS AND PHOTOELECTRIC DEVICES AND ORGANIC SENSORS AND ELECTRONIC DEVICES” (Samsung Electronics Co., Ltd., priority 2020, published 2021).

Data set [1] in a line: Light absorption characteristics in a solution state (UV-Vis-NIR spectrometer). Type of data set: physicochemical. The conditions noted are these: for λmax (nm) (solution): 1×10^−5 M; for UV-vis: λmax: CH2Cl2 Solution, in synthesis example. The method, then: The compounds according to Synthesis Examples 1 to 5 in dichloromethane, the compounds according to Comparative Synthesis Examples 1 and 2 in toluene, and the compound of Comparative Synthesis Example 3 in chloroform are respectively dissolved at a concentration of 1×10^−5 M to prepare solutions, and light absorption characteristics of the compounds in a solution state are evaluated. The light absorption characteristics are evaluated by using an UV-Vis-NIR spectrometer (UV-3600 Plus, Shimadzu Corp.) to measure a maximum absorption wavelength (λmax).

Data set [2] can be described thus: Light absorption characteristics in a thin film state (UV-Vis-NIR spectrometer). The format is physicochemical. The conditions noted are these: thin film spin-coated from chloroform on glass substrate. The method, then:
In addition, the compounds of Synthesis Examples 1 to 5 are respectively dissolved in chloroform and coated on a glass substrate at 800 rpm for 60 seconds and at 400 rpm for 5 seconds with a spin coater, and the light absorption characteristics thereof in a thin film state are evaluated. The light absorption characteristics are evaluated by measuring a maximum absorption wavelength (λmax) by using a UV-Vis-NIR spectrometer (UV-3600 Plus, Shimadzu Corp.).

In the case of `CCCCCCCCOc1ccc(N(c2ccc(OCCCCCCCC)cc2)c2ccc(-c3ccc(-c4c5c(c(-c6ccc(-c7ccc(N(c8ccc(OCCCCCCCC)cc8)c8ccc(OCCCCCCCC)cc8)cc7)s6)c6nsnc46)N=S=N5)s3)cc2)cc1` [Comparative Synthesis Example 1, reference compound], the “λmax (nm) (solution)” value in data set [1] (in toluene) was found to be 920 nm.

`CCCCCCCCC1(CCCCCCCC)c2ccccc2-c2ccc(-c3ccc(-c4c5c(c(-c6ccc(-c7ccc8c(c7)C(CCCCCCCC)(CCCCCCCC)c7ccccc7-8)s6)c6nsnc46)N=S=N5)s3)cc21` [Comparative Synthesis Example 2, reference compound]: the “λmax (nm) (solution)” value in data set [1] (in toluene) is 848 nm.

With `CCCCCCOc1cc(-c2c3c(c(-c4cc(OCCCCCC)c(-c5cc6c(s5)c5sc(CCCCCC)cc5n6CCCCCC)s4)c4nsnc24)N=[Se]=N3)sc1-c1cc2c(s1)c1sc(CCCCCC)cc1n2CCCCCC` [Synthesis Example 1], the “UV-vis: λmax” value in data set [1] stood at 1256 nm. Besides, the “λmax (nm) (solution)” value in data set [1] (in dichloromethane) is on record as 1256 nm. In addition, the “λmax (nm) (thin film)” value in data set [2] is recorded as 1226 nm.

For the compound `CCCCCCOc1cc(-c2c3c(c(-c4cc(OCCCCCC)c(-c5cc6c(s5)c5sc(CCCCCC)cc5n6CCCCCC)s4)c4nsnc24)N=S=N3)sc1-c1cc2c(s1)c1sc(CCCCCC)cc1n2CCCCCC` [Synthesis Example 2], the “UV-vis: λmax” value in data set [1] was found to be 1114 nm. The “λmax (nm) (solution)” value in data set [1] (in dichloromethane) was determined as 1076 nm. The “λmax (nm) (thin film)” value in data set [2] was 1120 nm.

With `CCCCCCOc1cc(-c2c3nsnc3c(-c3cc(OCCCCCC)c(-c4cc5c(s4)c4sc(CCCCCC)cc4n5CCCCCC)s3)c3nc4c5ncccc5c5cccnc5c4nc23)sc1-c1cc2c(s1)c1sc(CCCCCC)cc1n2CCCCCC` [Synthesis Example 3], the “UV-vis: λmax” value in data set [1] worked out at 1143 nm. Moreover, in data set [1] (in dichloromethane), the “λmax (nm) (solution)” value came out at 1143 nm. Moreover, in data set [2], the “λmax (nm) (thin film)” value stood at 1166 nm.

Take `CCCCCCOc1cc(-c2c3nsnc3c(-c3cc(OCCCCCC)c(-c4cc5c(s4)c4sc(CCCCCC)cc4n5CCCCCC)s3)c3nc4c5ccccc5c5ccccc5c4nc23)sc1-c1cc2c(s1)c1sc(CCCCCC)cc1n2CCCCCC` [Synthesis Example 4]: the “UV-vis: λmax” value in data set [1] is listed as 1020 nm. In addition, the “λmax (nm) (solution)” value in data set [1] (in dichloromethane) turned out to be 1020 nm. Besides, the “λmax (nm) (thin film)” value in data set [2] came to 1058 nm.

With `CCCCCCOc1cc(-c2c3c(c(-c4cc(OCCCCCC)c(-c5cc6c(s5)c5sc(CCCCCC)cc5n6CCCCCC)s4)c4n[se]nc24)N=[Se]=N3)sc1-c1cc2c(s1)c1sc(CCCCCC)cc1n2CCCCCC` [Synthesis Example 5], in data set [1], the “UV-vis: λmax” value was 1376 nm. Further, the “λmax (nm) (solution)” value in data set [1] (in dichloromethane) stood at 1376 nm. Moreover, the “λmax (nm) (thin film)” value in data set [2] came to 1285 nm.
